# Data: PubChem BioAssay AID1963839 (Molecular Pharmacology Branch, DTP, NCI, 2024)
# Tested on: 817829-284-R-J1-PDC complex spheroid viability
# Experiment: Anticancer human tumor 817829-284-R-J1-PDC patient-derived colon adenocarcinoma cell line growth inhibition [POLQ]
# Settings: for IC50: curve of first compound; for viability, T/C: stronger effect = lower value
# Method: Multicellular complex tumor spheroid response to Polymerase (POL) inhibitors (novobiocin, ART-558, RP6685) in combination with a variety of drugs and investigational agents in selected tumor cell lines
# The POL inhibitors (novobiocin, ART-558, and RP6685) were evaluated both individually and in combination with standard of care and investigational anticancer small molecules within a complex spheroid model of solid tumors. . Complex spheroids include a stromal component modeled by human endothelial cells (HUVEC) and fibroblasts modeled by human mesenchymal stem cells (MSCs). The concentration ranges selected for each drug and investigational agent were based upon clinically achievable concentrations if the clinical Cmax of the agent was known.
# Compounds. The drugs and investigational agents: novobiocin (NSC847541), ART-558 (NSC835418), RP-6685 (NSC848927), peposertib (NSC802822), ceralasertib (NSC780249), elimusertib (NSC800525), camonsertib (NSC841442), AZD-1390 (NSC803789), olaparib (NSC753686), talazoparib (NSC767125), rucaparib (NSC756644), sotorasib (NSC818433), MRTX-1133 (NSC836407), SN-38 (NSC673596), topotecan (NSC609699), epotoside (NSC141540), doxorubicin (NSC123127), gemcitabine (NSC613327), 5-fluorouracil (NSC19893), paclitaxel (NSC125973), vemurafenib (NSC761431), MSA-2 (NSC828583), SN-011 (NSC837082), adavosertib (NSC754352), prexasertib (NSC758257), carboplatin (NSC241240) and oxaliplatin (NSC266046), were obtained from the National Cancer Institute (NCI) Developmental Therapeutics Program Chemical Repository (21). The FDA-approved anticancer drug set is available from the Developmental Therapeutics Program at https://dtp.cancer.gov/organization/dscb/obtaining/. […] The stock solutions were prepared in dimethyl sulfoxide (DMSO, Sigma-Aldrich, St. Louis, MO, cat. D2650), except for the platinum compounds which were prepared in saline (Quality Biological, Gaithersburg, MD, cat. 114-055-101), at 800-fold the tested concentration and stored at -70 degrees C prior to their use. All drugs and investigational agents were tested over a range starting from a high concentration at or near the clinical Cmax and decreasing in half-log increments. If the clinical Cmax for an agent had not been determined, the highest concentration tested was 10 microM, except for SN-38, which was tested at a high concentration of 1 microM.
# Cell Culture. All cells were maintained in an incubator at 37 degrees C and 5% CO2 with 95% humidity. The PDC lines were cultured according to standard operating procedures established by the NCI PDMR (https://pdmr.cancer.gov). Table 3 of the manuscript, lists the cell lines along with the number of the three cell types plated to form the mct-spheroids and media for tumor cell growth. After thawing, all PDC lines, except 997537-175-T-J1-PDC and 415267-285-R-J2-PDC, were cultured in Matrigel-coated flasks prepared with a working solution of 1X Ham's F-12 nutrient mix, without supplementation (Thermo Fisher Scientific, cat. 11765054), 100 U/mL penicillin-streptomycin (Thermo Fisher Scientific, cat. 15140122), and 2.5% Matrigel (Corning Inc., Corning, NY, cat. 354248) for the first three passages. The two PDC lines 997537-175-T-J1-PDC and 415267-285-R-J2-PDC were cultured on uncoated flasks. The 857933-349-R-J2-PDC line was cultured in 6C/Colon 1B media containing advanced DMEM/F-12 (Thermo Fisher Scientific, cat. 12634028), 10 mM HEPES (Thermo Fisher Scientific, cat. 15630080), 1X GlutaMAX supplement (Thermo Fisher Scientific, cat. 35050061), 0.1 mg/mL primocin (InvivoGen, San Diego, CA, cat. ant-pm-2), 10% defined fetal bovine serum, heat inactivated (HyClone Laboratories Inc., Logan, UT, cat. SH30070.03HI), 50% L-WRN conditioned media (ATCC, cat. CRL-3276), 1.25 mM N-Acetyl-L-cysteine (Sigma-Aldrich, cat. A9165), 10 mM nicotinamide (Sigma-Aldrich, cat. N0636), 1X B-27 supplement (Thermo Fisher Scientific, cat. 17504044), 1X N-2 supplement (Thermo Fisher Scientific, cat. […]
# [1] = second compound 0.0316 µM, first compound 0.0316 µM
# [2] = second compound 0.0316 µM, first compound 0.1 µM
# [3] = second compound 0.0316 µM, first compound 0.316 µM
# [4] = second compound 0.0316 µM, first compound 1 µM
# [5] = second compound 0.0316 µM, first compound 3.16 µM
# [6] = second compound 0.0316 µM, first compound 10 µM
# [7] = second compound 0.1 µM, first compound 0.0316 µM
# [8] = second compound 0.1 µM, first compound 0.1 µM
# [9] = second compound 0.1 µM, first compound 0.316 µM
# [10] = second compound 0.1 µM, first compound 1 µM
# [11] = second compound 0.1 µM, first compound 3.16 µM
# [12] = second compound 0.1 µM, first compound 10 µM
# [13] = second compound 0.316 µM, first compound 0.0316 µM
# [14] = second compound 0.316 µM, first compound 0.1 µM
# [15] = second compound 0.316 µM, first compound 0.316 µM
# [16] = second compound 0.316 µM, first compound 1 µM
# [17] = second compound 0.316 µM, first compound 3.16 µM
# [18] = second compound 0.316 µM, first compound 10 µM
# [19] = second compound 1 µM, first compound 0.0316 µM
# [20] = second compound 1 µM, first compound 0.1 µM
# [21] = second compound 1 µM, first compound 0.316 µM
# [22] = second compound 1 µM, first compound 1 µM
# [23] = second compound 1 µM, first compound 3.16 µM
# [24] = second compound 1 µM, first compound 10 µM
# [25] = second compound 3.16 µM, first compound 0.0316 µM
# [26] = second compound 3.16 µM, first compound 0.1 µM
# [27] = second compound 3.16 µM, first compound 0.316 µM
# [28] = second compound 3.16 µM, first compound 1 µM
# [29] = second compound 3.16 µM, first compound 3.16 µM
# [30] = second compound 3.16 µM, first compound 10 µM
# [31] = second compound 10 µM, first compound 0.0316 µM
# [32] = second compound 10 µM, first compound 0.1 µM
# [33] = second compound 10 µM, first compound 0.316 µM
# [34] = second compound 10 µM, first compound 1 µM
# [35] = second compound 10 µM, first compound 3.16 µM
# [36] = second compound 10 µM, first compound 10 µM
# 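Further: spheroids exposed to compounds for 7 days.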
# 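Wherever viability, T/C is given: 100% = DMSO vehicle-treated spheroids.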
smiles,measurement,setting,value
COc1ccc([C@@H](O)c2cc(-c3ncnc4cc(N5CCOCC5)ccc34)c(F)cc2Cl)nn1 + Cc1cccc(N(C)C(=O)C2C(O)CCN2c2nc(C)cc(C(F)(F)F)c2C#N)c1,IC50,second compound 0.0316 µM,715 nM
same,IC50,second compound 0.1 µM,719 nM
same,IC50,second compound 0.316 µM,932 nM
same,IC50,second compound 1 µM,1220 nM
same,IC50,second compound 3.16 µM,474 nM
same,IC50,second compound 10 µM,751 nM
same,"viability, T/C",[1],112%
same,"viability, T/C",[2],112%
same,"viability, T/C",[3],72%
same,"viability, T/C",[4],42.3%
same,"viability, T/C",[5],22.3%
same,"viability, T/C",[6],17.9%
same,"viability, T/C",[7],103%
same,"viability, T/C",[8],80.3%
same,"viability, T/C",[9],66.9%
same,"viability, T/C",[10],40.8%
same,"viability, T/C",[11],32.7%
same,"viability, T/C",[12],19.9%
same,"viability, T/C",[13],107%
same,"viability, T/C",[14],74.6%
same,"viability, T/C",[15],102%
same,"viability, T/C",[16],47.1%
same,"viability, T/C",[17],28.3%
same,"viability, T/C",[18],15.5%
same,"viability, T/C",[19],111%
same,"viability, T/C",[20],105%
same,"viability, T/C",[21],92.2%
same,"viability, T/C",[22],54.5%
same,"viability, T/C",[23],28.1%
same,"viability, T/C",[24],21.9%
same,"viability, T/C",[25],98.6%
same,"viability, T/C",[26],130%
same,"viability, T/C",[27],62%
same,"viability, T/C",[28],38.3%
same,"viability, T/C",[29],27%
same,"viability, T/C",[30],18.6%
same,"viability, T/C",[31],92%
same,"viability, T/C",[32],81%
same,"viability, T/C",[33],70.8%
same,"viability, T/C",[34],41.4%
same,"viability, T/C",[35],26.3%
same,"viability, T/C",[36],13.5%
COc1cc2cc(C(=O)CCC(=O)O)sc2cc1OC + Cc1cccc(N(C)C(=O)C2C(O)CCN2c2nc(C)cc(C(F)(F)F)c2C#N)c1,IC50,second compound 0.0316 µM,> 10000 nM
same,IC50,second compound 0.1 µM,> 10000 nM
same,IC50,second compound 0.316 µM,> 10000 nM
same,IC50,second compound 1 µM,> 10000 nM
same,IC50,second compound 3.16 µM,> 10000 nM
same,IC50,second compound 10 µM,> 10000 nM
same,"viability, T/C",[1],100%
same,"viability, T/C",[2],93.1%
same,"viability, T/C",[3],89%
same,"viability, T/C",[4],88.5%
same,"viability, T/C",[5],114%
same,"viability, T/C",[6],96.2%
same,"viability, T/C",[7],113%
same,"viability, T/C",[8],97%
same,"viability, T/C",[9],99.5%
same,"viability, T/C",[10],105%
same,"viability, T/C",[11],98.7%
same,"viability, T/C",[12],102%
same,"viability, T/C",[13],101%
same,"viability, T/C",[14],90.5%
same,"viability, T/C",[15],99%
same,"viability, T/C",[16],108%
same,"viability, T/C",[17],107%
same,"viability, T/C",[18],108%
same,"viability, T/C",[19],102%
same,"viability, T/C",[20],88.2%
same,"viability, T/C",[21],96.7%
same,"viability, T/C",[22],116%
same,"viability, T/C",[23],105%
same,"viability, T/C",[24],104%
same,"viability, T/C",[25],91.1%
same,"viability, T/C",[26],111%
same,"viability, T/C",[27],117%
same,"viability, T/C",[28],93.8%
same,"viability, T/C",[29],100%
same,"viability, T/C",[30],96.9%
same,"viability, T/C",[31],87.7%
same,"viability, T/C",[32],86.8%
same,"viability, T/C",[33],112%
same,"viability, T/C",[34],89.6%
same,"viability, T/C",[35],109%
same,"viability, T/C",[36],89.6%
